Source: patent US20220409620A1, “REDUCING IMMUNOGENICITY TO PEGLOTICASE” (Horizon Pharma Rheumatology LLC, priority 2016, published 2022)

System: adult patients with uncontrolled gout
Assay: Serum uric acid (sUA) levels and sUA responder rate, open-label study of pegloticase with MTX (MIRROR OL)
Type: in vivo, human
Conditions: Month 6 sUA Responders
Experimental: The primary objective is to estimate the response rate during Month 6 (Weeks 20, 22, and 24), as measured by the sustained normalization of serum uric acid (SUA) to <6 mg/dL for at least 80% of the time during Month 6 in subjects receiving KXX with MTX.
The primary efficacy outcome endpoint is the sustained normalization of SUA to <6 mg/dL for at least 80% of the time during month 6 (weeks 20, 22, and 24) in subjects receiving KXX with MTX. […] Participants who achieve this endpoint were classified as “responders.” Serum uric acid (SUA) responders may also be defined as participants achieving and maintaining SUA <6 mg/dL for at least 80% of the time during Month 6 (Weeks 20, 22, and 24).
Blood samples may be collected prior to each pegloticase infusion for measurement of SUA levels using the Beckman Coulter AU System Uric Acid procedure. Participants were declared “non-responders” if there were SUA measures >6 mg/dL at 2 consecutive study visits beginning with the week 2 visit. […] This assumption and subsequent discontinuation of pegloticase was consistent with the protocol of large phase III randomized controlled trials and the product label. A formal stopping rule was 2 occasions of SUA levels of greater than 6 mg/dL.
Clinical Chemistry—Blood samples were collected prior to each pegloticase infusion for measurement of SUA levels (primary efficacy parameter) using the Beckman Coulter AU System Uric Acid procedure. In this procedure uric acid is converted to hydrogen peroxide. Hydrogen peroxide reacts with reagent to produce a chromophore which is read bichromatically at 660/800 nm. The amount of dye formed is proportional to the uric acid concentration in the sample.
Serum samples for measurement of SUA levels were collected at the Screening Visit, the Week −4 Visit (prior to the first dose of MTX), and the Week −2 Visit during the MTX Run-in Period; within 48 hours prior to each pegloticase infusion and after the end of each pegloticase infusion prior to discharge from the site during the Pegloticase+IMM Period; at the non-infusion Week 52/End of Study/Early Termination Visits and at the Post Treatment 3 and 6 Month Follow-up Visits. Additional serum samples for SUA levels were collected at optional non-infusion (Frequent Sampling) Visits at Weeks 1 and 7. […] Subjects with SUA level >6 mg/dL at 2 consecutive visits beginning at Week 2 visit discontinued treatment, completed the End of Pegloticase Infusion Visit procedures within 2 weeks and continued the subject visits according to the protocol (without treatment).
Efficacy analyses were performed using the modified intention-to-treat (mITT) population, defined as all enrolled subjects who received ≥1 dose of pegloticase. The proportion of Month 6 responders was summarized, along with a 95% confidence interval for the proportion. The proportion of Month 3 and overall (Months 3 and 6 combined) responders was analyzed similarly.
A subject was declared a non-responder if the subject had SUA level >6 mg/dL at 2 consecutive study visits beginning with the Week 2 Visit. In addition, a subject who withdraws from study treatment for any reason after the first dose of pegloticase in the KXX+MTX Period and prior to Month 6 (for the primary endpoint) or Month 3 (for the secondary endpoint) was considered a non-responder if SUA values were not collected at the planned time points.
Patients were administered oral MTX (15 mg/week) and folate (1 mg/day) 4 weeks prior to the first pegloticase infusion (Day 1) and throughout the pegloticase treatment period. Blood was drawn prior to each infusion to measure sUA level, monitor clinical parameters, and examine for ADA development. All patients followed typical IR prophylaxis protocols (fexofenadine one day before and the morning of each infusion and acetaminophen and IV corticosteroid the morning of each infusion).

[1] = End of Pegloticase Infusions Visit, n=2

## pegloticase
Day 1-Post-Infusion, n=8
  Serum Uric Acid, Observed, Median: 0.30 mg/dL
  sUA <6 mg/dL, n (%): 8 (100%)
[1]
  Serum Uric Acid, Change from Baseline, Mean (SD): −8.50 (1.556) mg/dL
  Serum Uric Acid, Change from Baseline, Median: -8.50 mg/dL
  Serum Uric Acid, Observed, Mean (SD): 0.30 (0.000) mg/dL
  Serum Uric Acid, Observed, Median: 0.30 mg/dL
  sUA <6 mg/dL, n (%): 2 (100%)
Week 1, n=4
  Serum Uric Acid, Change from Baseline, Mean (SD): −6.88 (1.836) mg/dL
  Serum Uric Acid, Change from Baseline, Median: -7.15 mg/dL
  Serum Uric Acid, Observed, Mean (SD): 0.30 (0.000) mg/dL
  Serum Uric Acid, Observed, Median: 0.30 mg/dL
  sUA <6 mg/dL, n (%): 4 (100%)
Week 2-Post-Infusion, n=11
  Serum Uric Acid, Change from Baseline, Mean (SD): −8.97 (2.810) mg/dL
  Serum Uric Acid, Change from Baseline, Median: -8.80 mg/dL
  Serum Uric Acid, Observed, Mean (SD): 0.30 (0.000) mg/dL
  Serum Uric Acid, Observed, Median: 0.30 mg/dL
  sUA <6 mg/dL, n (%): 11 (100%)
Week 2-Pre-Infusion, n=11
  Serum Uric Acid, Change from Baseline, Mean (SD): −8.64 (2.086) mg/dL
  Serum Uric Acid, Change from Baseline, Median: -8.80 mg/dL
  Serum Uric Acid, Observed, Mean (SD): 0.63 (1.096) mg/dL
  Serum Uric Acid, Observed, Median: 0.30 mg/dL
  sUA <6 mg/dL, n (%): 11 (100%)
Week 4-Post-Infusion, n=11
  Serum Uric Acid, Change from Baseline, Mean (SD): −8.97 (2.810) mg/dL
  Serum Uric Acid, Observed, Mean (SD): 0.30 (0.000) mg/dL
Week 4-Pre-Infusion, n=11
  Serum Uric Acid, Change from Baseline, Mean (SD): −8.59 (2.884) mg/dL
  Serum Uric Acid, Change from Baseline, Median: -8.60 mg/dL
  Serum Uric Acid, Observed, Mean (SD): 0.68 (1.043) mg/dL
  Serum Uric Acid, Observed, Median: 0.30 mg/dL
  sUA <6 mg/dL, n (%): 11 (100%)
Week 7, n=4
  sUA <6 mg/dL, n (%): 4 (100%)
Week 8-Post-Infusion, n=11
  Serum Uric Acid, Change from Baseline, Mean (SD): −8.97 (2.810) mg/dL
  Serum Uric Acid, Change from Baseline, Median: -8.80 mg/dL
  Serum Uric Acid, Observed, Mean (SD): 0.30 (0.000) mg/dL
  Serum Uric Acid, Observed, Median: 0.30 mg/dL
  sUA <6 mg/dL, n (%): 11 (100%)
Week 8-Pre-Infusion, n=11
  Serum Uric Acid, Change from Baseline, Mean (SD): −8.91 (2.824) mg/dL
  Serum Uric Acid, Change from Baseline, Median: -8.60 mg/dL
  Serum Uric Acid, Observed, Mean (SD): 0.37 (0.224) mg/dL
  Serum Uric Acid, Observed, Median: 0.30 mg/dL
  sUA <6 mg/dL, n (%): 11 (100%)
Week 10-Post-Infusion, n=11
  Serum Uric Acid, Change from Baseline, Mean (SD): −8.97 (2.810) mg/dL
  Serum Uric Acid, Change from Baseline, Median: -8.80 mg/dL
  Serum Uric Acid, Observed, Mean (SD): 0.30 (0.000) mg/dL
  Serum Uric Acid, Observed, Median: 0.30 mg/dL
  sUA <6 mg/dL, n (%): 11 (100%)
Week 10-Pre-Infusion, n=11
  Serum Uric Acid, Change from Baseline, Mean (SD): −8.97 (2.810) mg/dL
  Serum Uric Acid, Change from Baseline, Median: -8.80 mg/dL
  Serum Uric Acid, Observed, Mean (SD): 0.30 (0.000) mg/dL
  Serum Uric Acid, Observed, Median: 0.30 mg/dL
  sUA <6 mg/dL, n (%): 11 (100%)
Week 12-Post-Infusion, n=10
  Serum Uric Acid, Change from Baseline, Mean (SD): −9.13 (2.911) mg/dL
  Serum Uric Acid, Change from Baseline, Median: -9.05 mg/dL
  Serum Uric Acid, Observed, Mean (SD): 0.30 (0.000) mg/dL
  Serum Uric Acid, Observed, Median: 0.30 mg/dL
  sUA <6 mg/dL, n (%): 10 (100%)
Week 12-Pre-Infusion, n=11
  Serum Uric Acid, Change from Baseline, Mean (SD): −8.98 (2.806) mg/dL
  Serum Uric Acid, Change from Baseline, Median: -8.80 mg/dL
  Serum Uric Acid, Observed, Mean (SD): 0.30 (0.015) mg/dL
  Serum Uric Acid, Observed, Median: 0.30 mg/dL
  sUA <6 mg/dL, n (%): 11 (100%)
Week 14-Post-Infusion, n=10
  Serum Uric Acid, Change from Baseline, Mean (SD): −9.01 (2.959) mg/dL
  Serum Uric Acid, Change from Baseline, Median: -9.05 mg/dL
  Serum Uric Acid, Observed, Mean (SD): 0.30 (0.000) mg/dL
